Results as given in EP4582418A1, “CRYSTALLINE FORM OF QUINOLINE DERIVATIVE INHIBITOR, PREPARATION METHOD THEREFOR AND USE THEREOF” (TransThera Sciences (Nanjing), Inc., priority 2022, dated 2024).

How the values were obtained:
[1] = Solubility in FaSSIF (pH 6.5) and FeSSIF (pH 5.0) buffer solutions; assay type: physicochemical; conditions: for 24-hour solubility in buffer solutions with different pH values pH6.5: FaSSIF (pH 6.5); for 24-hour solubility in buffer solutions with different pH values pH6.5 / 24-hour solubility in buffer solutions with different pH values pH5.0: 37 °C, shaken 24 h; for 24-hour solubility in buffer solutions with different pH values pH5.0: FeSSIF (pH 5.0); for solubility compared with the compound of formula (I): test solutions at pH 5.0 and pH 6.5
Method: Test substances: the crystal forms I, II, III, and IV of the methanesulfonate of the compound of formula (I).
• 1) 0.42 g of NaOH, 3.44 g of anhydrous NaH2PO4, and 6.19 g of NaCl were dissolved in about 0.9 L of pure water; • 2) the pH was adjusted to 6.5 using 1 N NaOH or 1 N HCl, and the buffer solution was supplemented to the volume of 1 L with pure water at room temperature; • 3) 2.24 g of FaSSIF powder was added to about 0.5 L of the buffer solution, and the mixture was stirred until the powder was completely dissolved; the resulting solution was supplemented to the volume of 1 L with the buffer solution at room temperature, and after being left to stand for 2 h, it was ready for use.
• 1) 4.04 g of NaOH, 8.65 g of glacial acetic acid, and 11.87 g of NaCl were dissolved in about 0.9 L of pure water; • 2) the pH was adjusted to 5.0 using 1 N NaOH or 1 N HCl, and the buffer solution was supplemented to the volume of 1 L with pure water at room temperature; • 3) 11.2 g of FeSSIF powder was added to about 0.5 L of the buffer solution, and the mixture was stirred until the powder was completely dissolved; the resulting solution was supplemented to the volume of 1 L with the buffer solution at room temperature, and after being left to stand for 2 h, it was ready for use.
An appropriate amount of each test substance was placed into separate 10 mL PE tubes, and FaSSIF (pH 6.5) buffer solution and FeSSIF (pH 5.0) buffer solution, each 10 mL, were added into the tubes, respectively. The tubes were then placed in a constant temperature water bath shaker and shaken at 37 °C for 24 h. After 24 h, samples were collected and centrifuged. The supernatants were diluted, and the solubility of the supernatants was measured.

[2] = Stability test under influencing factors (high temperature, high humidity, illumination); assay type: physicochemical; conditions: for changes in the appearance and purity: left to stand under conditions of the influencing factors for 30 days
Method: Test substances: the crystal forms I, II, III, and IV of the methanesulfonate of the compound of formula (I) of the present disclosure.
Methodology: Appropriate amounts of samples of the crystal forms I, II, III, and IV of the methanesulfonate of the compound of formula (I) were separately left to stand open under the conditions of a high temperature (60 °C), a high humidity (RH 92.5%), and illumination (4500±500 Lux); sampling was performed on days 5, 10, and 30 to investigate changes in the appearance, purity, and crystal form of the samples.

[3] = PK evaluation of crystal forms in rats; assay type: in vivo; conditions: SD rats, PO 60 mg/kg
Method: The experimental crystal forms I and II of the methanesulfonate of the compound of formula (I) were each prepared into a suspension solution with 0.5% HPMC. The compound solutions were intragastrically administered to SD rats at a dose of 60 mg/kg. Blood samples were collected at time points of 15 min, 30 min, 1 h, 2 h, 4 h, 6 h, 8 h, 24 h, 48 h, 72 h, and 96 h after administration.
The animals were fixed, with tails warmed in a water bath 10 min before each sampling time point. About 100 µL of blood was collected via the tail vein, and the blood samples were collected in anticoagulation tubes containing EDTA-K2. The blood samples were then centrifuged at 8,000 rpm for 6 min at 4 °C to give plasma samples. The plasma samples were prepared within 30 min after blood collection. The plasma samples were stored in a refrigerator at -80 °C before the test.
The sample to be tested was taken out from the -80 °C refrigerator, naturally thawed at room temperature, and vortexed for 5 min. 20 µL of plasma sample was precisely pipetted to a 1.5 mL centrifuge tube, and 200 µL of internal standard working solution (a solution of tolbutamide in methanol, 100 ng/mL) was added. The resulting mixture was thoroughly mixed, vortexed for 5 min, and centrifuged at 12,000 rpm for 5 min. 50 µL of supernatant was precisely pipetted to a 96-well plate pre-loaded with 150 µL of water per well, and the resulting mixture was vortexed for 5 min and then used for LC-MS/MS analysis.
The concentrations of the test samples were calculated by Analyst 1.6.3 from AB Sciex. Parameters such as mean, standard deviation, and coefficient of variation (excluding those output directly by Analyst 1.6.3) were calculated by Microsoft Excel. PK parameters were calculated by Pharsight Phoenix 6.1 software NCA (Tmax was in median).

[4] = Left to stand open at 60 °C for 5 days
[5] = Left to stand open at 60 °C for 10 days
[6] = Left to stand open at 60 °C for 30 days
[7] = Left to stand open at RH 92.5% for 5 days
[8] = Left to stand open at RH 92.5% for 10 days
[9] = Left to stand open at RH 92.5% for 30 days
[10] = Left to stand open under illumination (4500±500 Lux) for 5 days
[11] = Left to stand open under illumination (4500±500 Lux) for 10 days
[12] = Left to stand open under illumination (4500±500 Lux) for 30 days

Structure (SMILES)	24-hour solubility in buffer solutions with different pH values pH6.5 [1]	24-hour solubility in buffer solutions with different pH values pH5.0 [1]	Appearance ([2]; 0 days)	Purity ([2]; 0 days)	Appearance [2, 4]	Purity [2, 4]	Appearance [2, 5]	Purity [2, 5]	Appearance [2, 6]	Purity [2, 6]	Appearance [2, 7]	Purity [2, 7]	Appearance [2, 8]	Purity [2, 8]	Appearance [2, 9]	Purity [2, 9]	Appearance [2, 10]	Purity [2, 10]	Appearance [2, 11]	Purity [2, 11]	other results
COc1cc2nccc(Oc3ccc(NC(=O)c4nn(C(C)C)cc(-c5ccc(F)cc5)c4=O)nc3)c2cc1OC [Compound of formula (I), N-(5-((6,7-dimethoxyquinolin-4-yl)oxy)pyridin-2-yl)-5-(4-fluorophenyl)-1-isopropyl-4-oxo-1,4-dihydropyridazine-3-carboxamide]	0.0002 mg/mL	0.004 mg/mL	–	–	–	–	–	–	–	–	–	–	–	–	–	–	–	–	–	–	–
COc1cc2nccc(Oc3ccc(NC(=O)c4nn(C(C)C)cc(-c5ccc(F)cc5)c4=O)nc3)c2cc1OC [Crystal form II, N-(5-((6,7-dimethoxyquinolin-4-yl)oxy)pyridin-2-yl)-5-(4-fluorophenyl)-1-isopropyl-4-oxo-1,4-dihydropyridazine-3-carboxamide]	0.023 mg/mL	0.31 mg/mL	White or off-white solid	99.74%	White or off-white solid	99.74%	White or off-white solid	99.73%	White or off-white solid	99.72%	White or off-white solid	99.74%	White or off-white solid	99.74%	White or off-white solid	99.74%	White or off-white solid	99.75%	White or off-white solid	99.74%	Appearance [2, 12]: White or off-white solid; Purity [2, 12]: 99.75%; changes in the appearance and purity [2]: no significant changes; AUClast ([3]; 0-96 h, n = 3): 3054.395 µg·h/mL; Cmax ([3]; n = 3): 58.933 µg/mL; λ_z ([3]; n = 3, suspension in 0.5% HPMC): 0.026 h⁻¹; Tmax ([3]; median, n = 3): 6.00 h; tz1/2 ([3]; terminal half-life, n = 3): 27.0 h; solubility compared with the compound of formula (I) [1]: significantly improved
COc1cc2nccc(Oc3ccc(NC(=O)c4nn(C(C)C)cc(-c5ccc(F)cc5)c4=O)nc3)c2cc1OC [Crystal form III, N-(5-((6,7-dimethoxyquinolin-4-yl)oxy)pyridin-2-yl)-5-(4-fluorophenyl)-1-isopropyl-4-oxo-1,4-dihydropyridazine-3-carboxamide]	0.023 mg/mL	0.025 mg/mL	White or off-white solid	99.90%	White or off-white solid	99.90%	White or off-white solid	99.90%	White or off-white solid	99.89%	White or off-white solid	99.90%	White or off-white solid	99.90%	White or off-white solid	99.90%	White or off-white solid	99.90%	White or off-white solid	99.91%	Appearance [2, 12]: White or off-white solid; Purity [2, 12]: 99.91%; changes in the appearance and purity [2]: no significant changes; solubility compared with the compound of formula (I) [1]: significantly improved
COc1cc2nccc(Oc3ccc(NC(=O)c4nn(C(C)C)cc(-c5ccc(F)cc5)c4=O)nc3)c2cc1OC [Crystal form IV, N-(5-((6,7-dimethoxyquinolin-4-yl)oxy)pyridin-2-yl)-5-(4-fluorophenyl)-1-isopropyl-4-oxo-1,4-dihydropyridazine-3-carboxamide]	0.023 mg/mL	0.31 mg/mL	White or off-white solid	99.91%	White or off-white solid	99.91%	White or off-white solid	99.91%	White or off-white solid	99.87%	White or off-white solid	99.92%	White or off-white solid	99.92%	White or off-white solid	99.92%	White or off-white solid	99.91%	White or off-white solid	99.91%	Appearance [2, 12]: White or off-white solid; Purity [2, 12]: 99.88%; changes in the appearance and purity [2]: no significant changes; solubility compared with the compound of formula (I) [1]: significantly improved
